Measurements taken from ChEMBL document CHEMBL1201862, “PubChem BioAssay data set” (2004).
Activity calls are given as the source filed them.

Assays:
Cytochrome P450 2C9 [1] = target: T1, Cytochrome P450 2C9 (Homo sapiens, UniProt P11712)
Cytochrome P450 1A2 = target: T2, Cytochrome P450 1A2 (Homo sapiens, UniProt P05177);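 also: PubChem cytochrome P450 panel assay, CYP1A2 panel member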
T2 sequence (P05177 whole entry): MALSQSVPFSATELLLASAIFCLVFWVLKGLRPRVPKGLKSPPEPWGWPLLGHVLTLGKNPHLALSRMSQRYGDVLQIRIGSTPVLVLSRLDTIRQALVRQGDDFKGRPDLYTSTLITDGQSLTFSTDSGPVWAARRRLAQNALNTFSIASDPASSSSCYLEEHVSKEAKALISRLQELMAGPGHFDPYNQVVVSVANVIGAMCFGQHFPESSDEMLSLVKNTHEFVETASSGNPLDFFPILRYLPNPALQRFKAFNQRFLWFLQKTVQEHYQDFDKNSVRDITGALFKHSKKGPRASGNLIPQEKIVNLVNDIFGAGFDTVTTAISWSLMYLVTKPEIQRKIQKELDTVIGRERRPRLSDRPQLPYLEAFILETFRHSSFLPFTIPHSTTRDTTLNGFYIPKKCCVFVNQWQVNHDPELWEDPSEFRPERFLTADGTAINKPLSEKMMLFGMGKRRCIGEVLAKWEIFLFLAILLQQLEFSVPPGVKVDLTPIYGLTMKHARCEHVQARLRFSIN

[2] = target: T3, Heat shock factor protein 1 (Mus musculus, UniProt P38532); experiment: HSF1 potentiators in luciferase reporter cells, confirmation, cell-based, NIH3T3, luminescence, dose retest (AID 435004); assay type: functional;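 also: stress induced by proteasome inhibitor MG132 added 30 min after compound; luciferase reporter driven by HSF1 response element in NIH3T3 cells; actives raise luminescence as potentiators of the MG132 stress response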
T3 sequence (P38532 whole entry): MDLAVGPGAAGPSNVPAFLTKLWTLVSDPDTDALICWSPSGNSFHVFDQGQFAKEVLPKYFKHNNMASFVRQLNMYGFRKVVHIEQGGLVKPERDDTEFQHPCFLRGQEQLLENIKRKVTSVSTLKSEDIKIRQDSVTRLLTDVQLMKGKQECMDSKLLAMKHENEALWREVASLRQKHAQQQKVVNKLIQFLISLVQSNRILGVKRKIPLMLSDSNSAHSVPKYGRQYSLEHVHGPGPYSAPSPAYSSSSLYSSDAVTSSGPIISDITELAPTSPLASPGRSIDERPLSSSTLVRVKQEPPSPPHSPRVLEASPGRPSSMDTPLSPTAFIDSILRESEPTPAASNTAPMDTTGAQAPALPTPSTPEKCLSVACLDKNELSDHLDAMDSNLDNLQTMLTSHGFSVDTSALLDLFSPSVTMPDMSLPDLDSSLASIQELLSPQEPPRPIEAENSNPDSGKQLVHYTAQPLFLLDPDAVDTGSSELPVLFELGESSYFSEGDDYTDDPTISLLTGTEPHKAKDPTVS

[3] = target: T4, Corticotropin-releasing factor receptor 2/Corticotropin-releasing factor-binding protein (Homo sapiens, UniProt P24387+Q13324); experiment: Dose Response confirmation of uHTS hits for small molecule antagonists of the CRF-binding protein and CRF-R2 receptor complex.; assay type: functional; settings: read-out: IC50_Mean
T4 sequence (Q13324 whole entry): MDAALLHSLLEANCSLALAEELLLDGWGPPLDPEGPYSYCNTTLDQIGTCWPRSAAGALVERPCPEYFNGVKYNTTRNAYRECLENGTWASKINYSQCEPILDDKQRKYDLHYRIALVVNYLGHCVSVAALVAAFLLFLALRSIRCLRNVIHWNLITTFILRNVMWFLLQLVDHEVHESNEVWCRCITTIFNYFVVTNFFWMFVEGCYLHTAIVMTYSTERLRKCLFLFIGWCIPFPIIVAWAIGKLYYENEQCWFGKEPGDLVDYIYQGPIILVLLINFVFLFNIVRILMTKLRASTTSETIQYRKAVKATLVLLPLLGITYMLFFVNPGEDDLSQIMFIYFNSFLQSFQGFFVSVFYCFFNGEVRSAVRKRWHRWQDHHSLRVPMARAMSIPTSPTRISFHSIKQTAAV
T4 sequence (P24387 whole entry): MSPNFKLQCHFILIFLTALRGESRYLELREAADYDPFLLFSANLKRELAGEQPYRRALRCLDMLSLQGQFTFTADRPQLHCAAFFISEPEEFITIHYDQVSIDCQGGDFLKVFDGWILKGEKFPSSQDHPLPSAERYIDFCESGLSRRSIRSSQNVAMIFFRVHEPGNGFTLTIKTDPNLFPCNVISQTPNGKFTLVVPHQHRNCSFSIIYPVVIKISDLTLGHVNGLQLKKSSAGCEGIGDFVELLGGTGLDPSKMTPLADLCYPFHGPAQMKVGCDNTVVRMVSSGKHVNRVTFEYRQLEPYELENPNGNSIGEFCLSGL

[4] = target: T4, Corticotropin-releasing factor receptor 2/Corticotropin-releasing factor-binding protein; experiment: activators of CRF receptor 2 with binding protein – uHTS hits, confirmation (AID 602473); assay type: functional; settings: read-out: EC50_Mean
[5] = inhibitors of firefly luciferase expression or activity, dose response, H4 neuroglioma cells, luminescence (AID 1990); assay type: functional, cell-based
[6] = Luminescence Cell-Based Dose Response HTS to Identify Inhibitors of 5'UTR Stem-Loop Driven Prion Protein mRNA Translation in H4 Neuroglioblastoma Cells. [Related pubchem assays: 1827 (Project Summary), 1813 (Primary HTS)]; assay type: functional
[7] = inhibitors of SNCA 5'UTR-driven reporter translation, confirmation, H4 neuroglioma cells, luminescence (AID 1988); assay type: functional, cell-based
Streptokinase A = target: T5, Streptokinase A (Streptococcus pyogenes serotype M1, UniProt P10520); experiment: S. pyogenes streptokinase expression inhibitors, potency, dose response, plasminogen activation absorbance, OD405 (AID 1914); assay type: functional, Streptococcus pyogenes M1 GAS;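 also: secreted streptokinase activity via plasminogen activation per viability signal from cell pellet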
T5 sequence (P10520 whole entry): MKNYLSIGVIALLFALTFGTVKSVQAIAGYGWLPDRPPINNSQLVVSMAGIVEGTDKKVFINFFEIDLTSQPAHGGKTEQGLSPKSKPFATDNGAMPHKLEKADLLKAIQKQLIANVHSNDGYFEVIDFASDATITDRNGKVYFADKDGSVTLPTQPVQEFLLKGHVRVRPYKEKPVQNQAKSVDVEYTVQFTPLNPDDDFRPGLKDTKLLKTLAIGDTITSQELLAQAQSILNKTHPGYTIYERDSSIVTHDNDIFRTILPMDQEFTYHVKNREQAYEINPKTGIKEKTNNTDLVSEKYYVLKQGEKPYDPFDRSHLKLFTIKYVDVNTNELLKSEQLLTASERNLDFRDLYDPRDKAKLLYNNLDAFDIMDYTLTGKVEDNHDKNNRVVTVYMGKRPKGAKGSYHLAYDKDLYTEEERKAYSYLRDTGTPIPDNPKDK

Vero = experiment: cells; assay type: functional; settings: Chlorocebus sabaeus
[8] = tested on: Streptococcus sp. 'group A'; experiment: growth inhibition of control SK(-) GAS strain, dose response, counter-screen for streptokinase expression inhibitor project, luminescence, kanamycin, BacTiterGlo, confirmation (AID 1900); assay type: functional, organism-based
Streptococcus = experiment: Group A Streptococcus viability loss, dose response, counter-screen for streptokinase expression inhibitor project, luminescence, BacTiterGlo (AID 1915); assay type: functional, organism-based;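 also: potency for reduction of bacterial viability or growth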
Cytochrome P450 2D6 = Cytochrome P450 2D6 (Homo sapiens, UniProt P10635);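 also: CYP2D6 member of a cytochrome P450 panel assay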
Cytochrome P450 2D6, sequence (P10635 whole entry): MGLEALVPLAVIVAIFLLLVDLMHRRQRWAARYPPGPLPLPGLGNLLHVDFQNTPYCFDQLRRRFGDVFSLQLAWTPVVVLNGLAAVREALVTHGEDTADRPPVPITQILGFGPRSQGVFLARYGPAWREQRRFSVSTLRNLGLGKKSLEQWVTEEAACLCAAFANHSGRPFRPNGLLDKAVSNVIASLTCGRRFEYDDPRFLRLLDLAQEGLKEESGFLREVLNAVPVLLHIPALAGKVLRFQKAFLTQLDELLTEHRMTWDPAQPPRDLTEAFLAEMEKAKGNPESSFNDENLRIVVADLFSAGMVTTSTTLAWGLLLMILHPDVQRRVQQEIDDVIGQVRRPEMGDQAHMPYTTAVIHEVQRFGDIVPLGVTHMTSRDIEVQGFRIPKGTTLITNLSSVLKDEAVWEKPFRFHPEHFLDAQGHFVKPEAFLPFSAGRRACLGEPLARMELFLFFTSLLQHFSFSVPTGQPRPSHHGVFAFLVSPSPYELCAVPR

Cytochrome P450 3A4 = Cytochrome P450 3A4 (Homo sapiens, UniProt P08684);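 also: CYP3A4 tested as one member of a cytochrome P450 panel screen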
Cytochrome P450 3A4, sequence (P08684 whole entry): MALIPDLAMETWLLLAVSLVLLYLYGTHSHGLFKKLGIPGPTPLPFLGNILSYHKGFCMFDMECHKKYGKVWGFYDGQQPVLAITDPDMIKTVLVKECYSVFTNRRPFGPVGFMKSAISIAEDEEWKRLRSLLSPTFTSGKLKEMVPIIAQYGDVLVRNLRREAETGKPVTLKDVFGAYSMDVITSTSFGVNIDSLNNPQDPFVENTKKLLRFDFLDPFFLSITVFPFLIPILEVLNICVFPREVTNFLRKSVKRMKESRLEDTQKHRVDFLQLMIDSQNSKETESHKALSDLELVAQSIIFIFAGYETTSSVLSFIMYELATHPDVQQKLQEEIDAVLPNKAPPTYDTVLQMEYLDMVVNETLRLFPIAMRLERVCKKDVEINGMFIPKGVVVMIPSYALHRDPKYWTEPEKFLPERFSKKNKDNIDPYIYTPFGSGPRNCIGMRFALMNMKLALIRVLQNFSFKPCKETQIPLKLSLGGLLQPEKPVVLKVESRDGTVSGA

Cytochrome P450 2C9 [9] = target: T1, Cytochrome P450 2C9; remark: listed apart in the source
[10] = inhibitors of intracellular T. cruzi replication, confirmation, NIH3T3 host cells, beta-gal luminescence (AID 2044); assay type: functional, cell-based;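 also: intracellular parasites grown in NIH/3T3 mouse fibroblasts as host cells; luminescent beta-galactosidase reporter signal from transgenic T. cruzi replicating inside host cells; inhibitors lower the luminescence signal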
INS1 = experiment: beta cell apoptosis inhibitors, cytokine rescue, dose response, luminescence, retest (AID 449756); assay type: functional, cell-based; settings: Rattus norvegicus;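 also: cell death triggered by IL-1 beta plus TNF-alpha plus IFN-gamma mixture; protective hits raise ATP signal compared with cytokine alone wells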
[11] = cytotoxicity toward NIH3T3 fibroblasts, dose response, counter-screen, cell-based, ATP luminescence, mouse fibroblasts (AID 2010); assay type: functional;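 also: cells exposed to compound for about 90 hours before reading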
Cytochrome P450 2C19 = Cytochrome P450 2C19 (Homo sapiens, UniProt P33261); experiment: Cytochrome panel assay with activity outcomes. Panel member name: p450-cyp2c19 Compounds with AC50 equal or less than 10 uM are considered active; assay type: functional
Cytochrome P450 2C19, sequence (P33261 whole entry): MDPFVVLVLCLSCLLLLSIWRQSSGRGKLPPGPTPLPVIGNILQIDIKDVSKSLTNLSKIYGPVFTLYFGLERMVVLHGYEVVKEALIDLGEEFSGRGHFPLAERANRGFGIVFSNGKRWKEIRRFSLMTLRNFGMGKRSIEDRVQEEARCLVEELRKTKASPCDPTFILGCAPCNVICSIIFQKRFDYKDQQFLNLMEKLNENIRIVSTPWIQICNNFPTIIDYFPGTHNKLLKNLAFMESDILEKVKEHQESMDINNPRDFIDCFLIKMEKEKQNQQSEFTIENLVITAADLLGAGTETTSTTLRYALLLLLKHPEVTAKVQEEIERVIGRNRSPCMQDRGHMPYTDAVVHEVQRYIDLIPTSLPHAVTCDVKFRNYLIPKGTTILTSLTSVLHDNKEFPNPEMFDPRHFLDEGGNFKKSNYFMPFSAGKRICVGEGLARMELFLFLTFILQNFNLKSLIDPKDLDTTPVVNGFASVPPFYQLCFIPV

T1 sequence (P11712 whole entry): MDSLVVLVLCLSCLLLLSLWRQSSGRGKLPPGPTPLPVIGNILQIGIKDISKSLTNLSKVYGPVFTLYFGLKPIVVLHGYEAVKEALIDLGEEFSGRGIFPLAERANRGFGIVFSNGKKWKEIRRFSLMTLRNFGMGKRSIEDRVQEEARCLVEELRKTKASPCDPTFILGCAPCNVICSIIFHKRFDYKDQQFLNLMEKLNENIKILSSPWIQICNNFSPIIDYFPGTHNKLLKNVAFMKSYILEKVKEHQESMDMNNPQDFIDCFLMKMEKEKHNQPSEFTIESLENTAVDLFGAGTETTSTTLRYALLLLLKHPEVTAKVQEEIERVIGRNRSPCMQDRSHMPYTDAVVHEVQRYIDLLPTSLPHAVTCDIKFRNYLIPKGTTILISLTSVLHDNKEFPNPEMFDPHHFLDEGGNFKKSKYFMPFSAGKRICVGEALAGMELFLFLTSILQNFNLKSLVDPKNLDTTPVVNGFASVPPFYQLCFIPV

Oc1ccc(Cc2nccc3cc(O)c(O)cc23)cc1O [PAPAVEROLINE]
AC50 (Cytochrome P450 2C9 [1]): inconclusive
AC50 (Cytochrome P450 1A2): 5.01 µM (inconclusive)

CC(Oc1ccc(Cl)cc1)C(=O)OCC(=O)Nc1ncc(Cl)cc1Cl (stereo not given)
EC50 [2]: > 260 µM (inactive)

COc1ccccc1COC(=O)Nc1c(C)nn(C)c1Cl
AC50 (Cytochrome P450 2C9 [1]): inconclusive

CCOC(=O)CSc1nc2c(sc3ccc([N+](=O)[O-])cc32)c(=O)n1Cc1ccco1
EC50 [2]: > 260 µM (inactive)

O=C1c2cccc3c(Cl)ccc(c23)C(=O)N1O
AC50 (Cytochrome P450 2C9 [1]): inconclusive

C/C(C[n+]1ccccc1)=N\N=C(N)N
AC50 (Cytochrome P450 2C9 [1]): inconclusive

COc1ccccc1/C=C/c1nc(S(=O)(=O)c2ccccc2)c(N(C)C)o1
IC50 [3]: < 0.368 µM (active)
EC50 [4]: > 53 µM (inactive)

CCOc1ccc(S(=O)(=O)N2CN(c3cccc(C(C)=O)c3)c3nc4ccccc4nc32)cc1
IC50 [3]: < 0.368 µM (active)
EC50 [4]: > 53 µM (inactive)

CC(C)CC(=O)Nc1ccc(N2CCOCC2)cc1
EC50 [2]: > 260 µM (inactive)

COc1ccc(CNC(=O)CN(Cc2ccccc2)C(=O)CCC(=O)Nc2nccs2)cc1
EC50 [2]: > 260 µM (inactive)

Cc1ccc(OCC(=O)N2N=C(C(F)(F)F)CC2(O)C(C)(C)C)cc1C (stereo not given)
EC50 [5]: 102 µM (active)
EC50 [6]: 21.8 µM (active)
EC50 [7]: 33.1 µM (active)

COc1ccc(O)c(C(=O)CC(=O)c2ccccc2C)c1
EC50 (Streptokinase A): > 150 µM (not active)
CC50 (Vero): 20.4 µM (active)
EC50 [8]: 6.85 µM (active)
EC50 (Streptococcus): 49.1 µM (active)

Cc1cccc(-n2c(SCc3ccc(C#N)cc3)nnc2-c2c[nH]c3ccccc23)c1
EC50 [5]: > 120 µM (not active)
EC50 [6]: > 120 µM (not active)
EC50 [7]: 25.7 µM (active)

COc1cc(C(=O)NCc2cccc3ccccc23)cc(Cl)c1OC
AC50 (Cytochrome P450 2C9 [1]): inconclusive
AC50 (Cytochrome P450 2D6): 15.8 µM (inconclusive)

O=C(NCC(c1ccco1)N1CCCCC1)c1ccc(COc2ccc(Cl)cc2)cc1 (stereo not given)
CC50 (Vero): > 25 µM (active)

O=C(C[n+]1nc(CNc2ccc(Cl)cc2)n2c1CCCCC2)c1ccc(Br)cc1
EC50 (Streptokinase A): 12.5 µM (active)
IC50 [3]: > 47.1 µM (inactive)
EC50 [8]: 5.64 µM (active)
EC50 (Streptococcus): 84.2 µM (active)
EC50 [4]: > 53 µM (inactive)

Nc1nc(N)c(/C=N/c2ccc(Br)cc2)c(Nc2ccc(Br)cc2)n1
EC50 (Streptokinase A): > 150 µM (not active)
CC50 (Vero): > 25 µM (active)
EC50 [8]: 1.11 µM (active)
EC50 (Streptococcus): 3.09 µM (active)
EC50 [2]: 71.2 µM (active)

COc1cc(NC(=O)c2cc3ccccc3o2)c(OC)cc1Br
AC50 (Cytochrome P450 3A4): 10 µM (inconclusive)
EC50 [6]: > 120 µM (not active)
EC50 [7]: 14.7 µM (active)
AC50 (Cytochrome P450 1A2): 2.24 µM (inconclusive)
AC50 (Cytochrome P450 2C9 [9]): 0.112 µM (inconclusive)

CC1(c2ccc([N+](=O)[O-])cc2)NC(=O)N(CC(=O)c2ccc3c(c2)OCO3)C1=O (stereo not given)
EC50 [4]: 12.1 µM (active)
EC50 [2]: > 260 µM (inactive)

CCOc1cc(/C=N\NC(=O)C2C(=O)NCC2c2ccccc2)ccc1OC (stereo not given)
EC50 [5]: > 120 µM (not active)
EC50 [6]: > 120 µM (not active)
EC50 [7]: > 120 µM (not active)
EC50 [4]: 5.59 µM (active)

CCCNC(=O)c1c(CSc2ccc(Cl)cc2)noc1C(=O)NCc1ccccc1
EC50 [2]: > 260 µM (inactive)

COCCn1c(SCC(=O)Nc2cccc(C(=O)OC)c2)nc2ccccc2c1=O
EC50 [5]: 36.7 µM (active)
IC50 [3]: > 47.1 µM (inactive)
EC50 [6]: > 120 µM (not active)
EC50 [7]: 15.2 µM (active)
EC50 [4]: > 53 µM (inactive)

Cc1cccc(C)c1/N=C1\SC(CC(=O)Nc2c(C)cccc2C)C(=O)N1CCc1ccccn1 (stereo not given)
EC50 [5]: 10.2 µM (active)
EC50 [6]: 0.46 µM (active)
EC50 [7]: 95.8 µM (active)

CS(=O)(=O)N(CC(=O)Nc1ccc(CC#N)cc1)c1ccc(C23CC4CC(CC(C4)C2)C3)cc1
EC50 [10]: 2.35 µM (active)
AC50 (INS1): 6.44 µM (active)
EC50 [11]: > 60 µM (not active)
EC50 [2]: > 260 µM (inactive)

C=C(C)COc1ccc(-c2nc(N)ncc2-c2ccc(OC)c(OC)c2)c(O)c1
EC50 [5]: 33.7 µM (active)
EC50 [6]: > 120 µM (not active)
EC50 [7]: 15.7 µM (active)

Cn1ncc2c(Nc3ccc(-c4ccccc4)cc3)ncnc21
CC50 (Vero): > 25 µM (active)

COc1ccccc1C1SCCN1S(=O)(=O)c1ccccc1 (stereo not given)
IC50 [3]: > 47.1 µM (inactive)
EC50 [4]: > 53 µM (inactive)

COc1cccc(C(=O)OCC(=O)NCCC2=CCCCC2)c1
IC50 [3]: > 47.1 µM (inactive)
EC50 [4]: > 53 µM (inactive)

Cn1c(Cc2cccc3ccccc23)nnc1SCC(=O)N1CCN(c2ccccc2)CC1
AC50 (Cytochrome P450 2C9 [1]): inconclusive

CCCc1nnc(NC(=O)CN2C(=O)C3C4C=CC(C4)C3C2=O)s1 (stereo not given)
AC50 (Cytochrome P450 2C9 [1]): inconclusive
AC50 (Cytochrome P450 2C19; read-out: AC50): 17.8 µM (inconclusive)

Cc1nnc(C)n1/N=C/c1cccs1
IC50 [3]: > 47.1 µM (inactive)
AC50 (Cytochrome P450 2C19): inconclusive
AC50 (Cytochrome P450 1A2): 17.8 µM (inconclusive)
EC50 [4]: > 53 µM (inactive)
